From patent US20240409890A1, “UFMYLATION INHIBITION TO TARGET TAUOPATHY IN HUMAN NEURONS” (priority 2023, published 2024)

Legend:
Format in all cases: cell-based, human
[1] = tested on: hM4Di-expressing K18-seeded 4R-P301S-HaloTag neurons; assay: DREADDs chronic neuronal silencing, MC1 tau inclusions; settings: CNO weekly for 2 weeks starting one week after K18 seeding
Method: 4R-P301S-HaloTag iPSCs were differentiated into neurons on coverslips as described. Neurons were transduced with hSyn-hM4Di-mCherry lentivirus on D6. This lentiviral construct was made using the 3rd generation lentiviral plasmid FUGW (Addgene, 14883), where the PacI+EcoRI fragment was replaced by hSyn-hM4D(Gi)-mCherry. pAAV-hSyn-hM4D(Gi)-mCherry was a gift from Bryan Roth (Addgene, 50475; http://n2t.net/addgene). The medium was changed on D7, and neurons were seeded with […] K18-tau fibrils. Neurons were maintained as described. Beginning at D14, clozapine-N-oxide (CNO; Tocris) was included in weekly media changes for a final concentration of […]. Neurons were fixed and stained with MC1 on D29. For MC1 quantification, stained neurons were imaged with a fluorescence microscope (Keyence BZ-X710). A 20× objective was used to acquire a series of 10 Z-stack images per coverslip. To validate the neuronal silencing effect of CNO by calcium imaging, 4R-P301S neurons were differentiated and transduced with hSyn-hM4Di-mCherry and hSyn-GCaMP8f lentivirus on D6. At D36, JFX-549 was added to neurons and prepared for imaging as described above. Exposure time was set to 20 milliseconds. Neurons were perfused with 10 μM CNO at 60 seconds and calcium traces in one field were recorded for 400 seconds.

[2] = tested on: hM4Di-expressing 4R-P301S neurons; assay: Calcium imaging of acute neuronal silencing by CNO; settings: upon addition of CNO
Method: 4R-P301S-HaloTag iPSCs were differentiated into neurons on coverslips as described. Neurons were transduced with hSyn-jGCaMP8f lentivirus on D6. This lentiviral construct was made using the 3rd generation lentiviral plasmid FUGW (Addgene, 14883), where the PacI+EcoRI fragment was replaced by the hSyn-GCaMP8f fragment (Zhang et al., 2023). pGP-AAV-hSyn-jGCaMP8f-WPRE was a gift from GENIE Project (Addgene, 162376). The medium was changed on D7, and neurons were seeded with […] K18-tau fibrils. Neurons were maintained as described until imaging at 4 and 5 weeks old. On the day of imaging, JFX-549 HaloTag ligand (HHMI Janelia) was diluted into fresh maturation medium to […], and one-fifth of neuronal medium was replaced with diluted ligand (200 nM final ligand concentration). Cells were incubated at 37° C. for 15 minutes. An equal volume of medium was replaced with half-fresh medium, and half-conditioned medium from a control well. […] Fluorescence time-lapse images were collected on a Nikon FN1 microscope using a 60×, 1.0 NA objective (CFI APO 60XW NIR, Nikon) and a C-FL GFP filter cube. […]
4R-P301S-HaloTag iPSCs were differentiated into neurons on coverslips as described. […] For MC1 quantification, stained neurons were imaged with a fluorescence microscope (Keyence BZ-X710). […] Neurons were perfused with 10 μM CNO at 60 seconds and calcium traces in one field were recorded for 400 seconds.

[3] = tested on: tau inclusion in K18-seeded 4R-P301S neurons; assay: UBA5 inhibitor treatment, flow cytometry of MC1+ tau inclusions; settings: for tau inclusion induced by K18 seeding (MC1+/DAPI+ neurons) compared with control treatment group: treated Day 5, 3.0 ug/mL K18 Day 7, FACS Day 21
Method: Pre-differentiation of human iPSCs into neurons was initiated by plating 1.5×10^6 iPSCs in one well Matrigel-coated 6-well plates with Knockout DMEM/F-12 media containing doxycycline ([…]), N2 supplement, non-essential amino acids, brain-derived neurotrophic factor (10 ng/mL, Peprotech), neurotrophin-3 (10 ng/mL, PeproTech) and ROCK inhibitor (Y-27632, Cayman chemicals). The media was replaced the next day without ROCK inhibitor, and pre-differentiation was maintained for a total of three days. On day 0, the pre-differentiated precursor cells were dissociated with Accutase and re-plated generally onto Laminin-coated coverslips (Neuvitro) at 1.5×10^5 cells/coverslip or 12-well tissue culture plates (Corning) at 3.8×10^5 cells/well for the growth of neuronal cultures in Neurobasal Plus media containing B27 supplement, Glutamax, BDNF (10 ng/mL) and NT3 (10 ng/mL) with doxycycline (2 μg/mL). Half of the medium was replaced on day 3, as well as on day 7 with the removal of doxycycline from the fresh media. The medium volume was doubled on day 21. Thereafter, one-half of the medium was replaced with fresh medium weekly until the cells were collected. All human iPS cell lines used in this work have been regularly tested for mycoplasma (Lonza) and karyotyped (MSK Molecular Cytogenetics Core).
Myc-tagged K18-P301L Tau was expressed and purified as previously described2. Briefly, protein expression was induced in Terrific Broth containing the chemical chaperone betaine (10 mM) and IPTG (500 uM) for 3 hrs at 30° C. Tau was purified via the following major steps: mechanical lysis, boiling, centrifugation, and cation exchange. Purified Tau fractions were dialyzed into aggregation assay buffer (PBS pH 7.4, 2 mM DTT). To minimize potential endotoxin contamination, purified tau was incubated with poly(epsilon-lysine) conjugated resin (Pierce), then tested post-treatment for endotoxin levels using the ToxinSensor™ Chromogenic LAL Endotoxin Assay Kit (Genscript). […] The concentration of aggregated tau was quantified by Pierce BCA assay. […]

[4] = tested on: 4R-P301S iPSC-derived neurons; assay: Toxic effect of UBA5 inhibitor on iPSC-derived neurons; settings: 5 uM, 10 uM and 20 uM (data not shown)
Method: 4R-P301S iPSCs were seeded at the density of 1.2×10^7 per plate in 10-cm plates in pre-differentiation medium. On day 0, pre-differentiated neurons were replated at the density of 4×10^5 per well in poly-D-lysine (PDL) pre-coated 12-well plates (Corning) in maturation medium. On day 5, iPSCs differentiated neurons were treated with three UBA5 inhibitors separately ay various concentrations. On day 7, iPSCs differentiated neurons were treated with […] K18 fibrils for 2 weeks. On day 21, neurons in 12-well plates were collected for flow cytometry analysis.

SMILES	levels of Tau inclusions (MC1+ aggregates) compared with vehicle treatment [1]	neuronal activities (calcium imaging) [2]	tau inclusion induced by K18 seeding (MC1+/DAPI+ neurons) compared with control treatment group ([3]; 0.1 uM)	tau inclusion induced by K18 seeding (MC1+/DAPI+ neurons) compared with control treatment group ([3]; 1 uM)	percentage of MC1+ cells (tau inclusion induced by K18 treatment) ([3]; D21(7+14), 3 μg/ml K18-seeded 4R-P301S neurons pre-treated at various concentrations, FIG. 15 legend)	toxic effect on neurons [4]
C[N+]1([O-])CCN(C2=Nc3cc(Cl)ccc3Nc3ccccc32)CC1 [CNO, clozapine-N-oxide]	significantly reduced	silenced	–	–	–	–
CC(=O)c1c(O)c(C)c(O)c2c1OC1=CC(=O)/C(=C(/C)N)C(=O)[C@@]12C [Usenamine A, (2E,9bR)-6-acetyl-2-(1-aminoethylidene)-7,9-dihydroxy-8,9b-dimethyldibenzouran-1,3-dione]	–	–	failed to prevent tau inclusion	successfully prevented tau inclusion	prevented the tau inclusion	exerted toxic effect on neurons
